Experimental data as given in patent US20130012473A1, “COMBINED USE OF PHOSPHOLIPID AND SULFATE GROUPS-CARRYING POLYSACCHARIDES FOR INHIBITING METASTATIC SPREAD” (KTB TUMORFORSCHUNGSGESELLSCHAFT MBH, priority 2010, published 2013).

What was measured:
Format in all cases: cell-based, mouse
B16.F10 cells = assay: LysoPC-mediated toxicity, cell viability by BrdU assay
Experimental: BrdU proliferation assay: Proliferation and viability were determined by BrdU and WST-1 assay (Roche Diagnostics GmbH, Penzberg, Germany) according to the manufacturer's instructions.
LysoPC was toxic towards B16.F10 cells (p<0.001) at physiological concentrations (≧150 μM) in culture medium (DMEM plus 10% FCS). Thus, different amounts of BSA were added to reduce the concentration of cellular assessable LysoPC (monomolecular and micellar dissolved) and to therefore reduce LysoPC toxicity. Viability of the tumor cells was determined by BrdU assay and adding 10 mg BSA/ml, reduced cell viability was evident above 300 μM LysoPC. Using 20 mg/ml, reduced cell viability was evident above 450 μM LysoPC. Thus, to avoid toxicity of exogenous LysoPC (150 μM to 900 μM) towards the tumor cells during the LysoPC-removal-assay (FIG. 1), addition of 20 mg-40 mg BSA/ml DMEM was essential.

P-selectin ligands = assay: Flow cytometry, binding of soluble P-selectin Fc chimera; details: 450 μM LysoPC treated cells vs control cells
Experimental: FIG. 3: Impact of exogenous LysoPC on the surface expression of VLA-4 or VCAM-1- and P-selectin-ligands. (A) Surface expression of VLA-4 on B16.F10 cells treated with 450 μM LysoPC for 13 days was controlled by flow cytometric analysis. […] FACS histograms (A-C) show one representative of three independent experiments. In all experiments cells only incubated with the respective FITC-conjugated detection antibody served as control.

B16.F10 melanoma cells = assay: Removal of exogenous LysoPC from the medium (PC/LysoPC and free choline assays); details: in absence of the cells
Text: Cell culture and LysoPC feeding: Mouse melanoma cell line B16.F10 (ATCC, CRL-6475) was passaged in vitro in DMEM as described before (Fritzsche, J. et al., Thromb. Haemost. 100:1166-1175 (2008)). Cells were routinely (monthly) tested to be negative of mycoplasms, their morphological appearance observed by microscopic means and examined for the expression of adhesion receptors and ligands by flow cytometry. LysoPC removal (1-Heptadecanoyl-2-hydroxy-sn-glycero-3-phosphocholine, (C17:0; HEP-LysoPC), Avanti Polar Lipids, Inc., or 1-Hexadecanoyl-sn-glycero-3-phosphocholine, (C16:0; HEX-LysoPC), Sigma, Taufkirchen, Germany was determined using 1×10^5 cells in 24-well tissue culture plates (Greiner BioOne, Frickenhausen, Germany). Non-cytotoxic LysoPC/BSA DMEM-solutions (FIG. 7 A) were prepared by adding 20-40 mg/ml bovine serum albumine (BSA, PAA Laboratories GmbH, Cölbe, Germany). Cell culture supernatants were collected from triplicates of LysoPC treated and untreated control wells. Cells were removed from tissue culture plates using trypsin/EDTA. […]
Determination of LysoPC concentration: LysoPC concentration was determined by an enzymatic PL (PC/LysoPC) assay containing phospholipase D and choline oxidase (mti diagnostics GmbH, Idstein, Germany). […]
B, C and D) Colorimetric assays for the quantification of LysoPC removal from the supernatant of B16.F10. […]

CCCCCCCCCCCCCCCCC(=O)OC[C@@H](O)COP(=O)([O-])OCC[N+](C)(C)C [LysoPC]
LysoPC concentration with reduced cell viability (B16.F10 cells; 10 mg BSA/ml added): above 300 μM | LysoPC concentration with reduced cell viability (B16.F10 cells; 20 mg/ml BSA added): above 450 μM | toxic LysoPC concentration (B16.F10 cells; culture medium DMEM plus 10% FCS, no added BSA, p<0.001): ≥ 150 µM | expression of P-selectin ligands (P-selectin-Fc chimera binding) (P-selectin ligands): remained unchanged | LysoPC concentration in culture medium (B16.F10 melanoma cells): not changed in absence of the cells
